Test results as given in ChEMBL document CHEMBL3407334, “Synthesis of novel inhibitors of α-glucosidase based on the benzothiazole skeleton containing benzohydrazide moiety and their molecular docking studies” (Eur J Med Chem, 2015).

Target: Maltase-glucoamylase (Homo sapiens, UniProt O43451)
Experiment: Inhibition of alpha-glucosidase (unknown origin) using pNPG substrate incubated for 15 mins by microplate reader based method; call rule not given here

Chain of Maltase-glucoamylase (O43451 whole entry): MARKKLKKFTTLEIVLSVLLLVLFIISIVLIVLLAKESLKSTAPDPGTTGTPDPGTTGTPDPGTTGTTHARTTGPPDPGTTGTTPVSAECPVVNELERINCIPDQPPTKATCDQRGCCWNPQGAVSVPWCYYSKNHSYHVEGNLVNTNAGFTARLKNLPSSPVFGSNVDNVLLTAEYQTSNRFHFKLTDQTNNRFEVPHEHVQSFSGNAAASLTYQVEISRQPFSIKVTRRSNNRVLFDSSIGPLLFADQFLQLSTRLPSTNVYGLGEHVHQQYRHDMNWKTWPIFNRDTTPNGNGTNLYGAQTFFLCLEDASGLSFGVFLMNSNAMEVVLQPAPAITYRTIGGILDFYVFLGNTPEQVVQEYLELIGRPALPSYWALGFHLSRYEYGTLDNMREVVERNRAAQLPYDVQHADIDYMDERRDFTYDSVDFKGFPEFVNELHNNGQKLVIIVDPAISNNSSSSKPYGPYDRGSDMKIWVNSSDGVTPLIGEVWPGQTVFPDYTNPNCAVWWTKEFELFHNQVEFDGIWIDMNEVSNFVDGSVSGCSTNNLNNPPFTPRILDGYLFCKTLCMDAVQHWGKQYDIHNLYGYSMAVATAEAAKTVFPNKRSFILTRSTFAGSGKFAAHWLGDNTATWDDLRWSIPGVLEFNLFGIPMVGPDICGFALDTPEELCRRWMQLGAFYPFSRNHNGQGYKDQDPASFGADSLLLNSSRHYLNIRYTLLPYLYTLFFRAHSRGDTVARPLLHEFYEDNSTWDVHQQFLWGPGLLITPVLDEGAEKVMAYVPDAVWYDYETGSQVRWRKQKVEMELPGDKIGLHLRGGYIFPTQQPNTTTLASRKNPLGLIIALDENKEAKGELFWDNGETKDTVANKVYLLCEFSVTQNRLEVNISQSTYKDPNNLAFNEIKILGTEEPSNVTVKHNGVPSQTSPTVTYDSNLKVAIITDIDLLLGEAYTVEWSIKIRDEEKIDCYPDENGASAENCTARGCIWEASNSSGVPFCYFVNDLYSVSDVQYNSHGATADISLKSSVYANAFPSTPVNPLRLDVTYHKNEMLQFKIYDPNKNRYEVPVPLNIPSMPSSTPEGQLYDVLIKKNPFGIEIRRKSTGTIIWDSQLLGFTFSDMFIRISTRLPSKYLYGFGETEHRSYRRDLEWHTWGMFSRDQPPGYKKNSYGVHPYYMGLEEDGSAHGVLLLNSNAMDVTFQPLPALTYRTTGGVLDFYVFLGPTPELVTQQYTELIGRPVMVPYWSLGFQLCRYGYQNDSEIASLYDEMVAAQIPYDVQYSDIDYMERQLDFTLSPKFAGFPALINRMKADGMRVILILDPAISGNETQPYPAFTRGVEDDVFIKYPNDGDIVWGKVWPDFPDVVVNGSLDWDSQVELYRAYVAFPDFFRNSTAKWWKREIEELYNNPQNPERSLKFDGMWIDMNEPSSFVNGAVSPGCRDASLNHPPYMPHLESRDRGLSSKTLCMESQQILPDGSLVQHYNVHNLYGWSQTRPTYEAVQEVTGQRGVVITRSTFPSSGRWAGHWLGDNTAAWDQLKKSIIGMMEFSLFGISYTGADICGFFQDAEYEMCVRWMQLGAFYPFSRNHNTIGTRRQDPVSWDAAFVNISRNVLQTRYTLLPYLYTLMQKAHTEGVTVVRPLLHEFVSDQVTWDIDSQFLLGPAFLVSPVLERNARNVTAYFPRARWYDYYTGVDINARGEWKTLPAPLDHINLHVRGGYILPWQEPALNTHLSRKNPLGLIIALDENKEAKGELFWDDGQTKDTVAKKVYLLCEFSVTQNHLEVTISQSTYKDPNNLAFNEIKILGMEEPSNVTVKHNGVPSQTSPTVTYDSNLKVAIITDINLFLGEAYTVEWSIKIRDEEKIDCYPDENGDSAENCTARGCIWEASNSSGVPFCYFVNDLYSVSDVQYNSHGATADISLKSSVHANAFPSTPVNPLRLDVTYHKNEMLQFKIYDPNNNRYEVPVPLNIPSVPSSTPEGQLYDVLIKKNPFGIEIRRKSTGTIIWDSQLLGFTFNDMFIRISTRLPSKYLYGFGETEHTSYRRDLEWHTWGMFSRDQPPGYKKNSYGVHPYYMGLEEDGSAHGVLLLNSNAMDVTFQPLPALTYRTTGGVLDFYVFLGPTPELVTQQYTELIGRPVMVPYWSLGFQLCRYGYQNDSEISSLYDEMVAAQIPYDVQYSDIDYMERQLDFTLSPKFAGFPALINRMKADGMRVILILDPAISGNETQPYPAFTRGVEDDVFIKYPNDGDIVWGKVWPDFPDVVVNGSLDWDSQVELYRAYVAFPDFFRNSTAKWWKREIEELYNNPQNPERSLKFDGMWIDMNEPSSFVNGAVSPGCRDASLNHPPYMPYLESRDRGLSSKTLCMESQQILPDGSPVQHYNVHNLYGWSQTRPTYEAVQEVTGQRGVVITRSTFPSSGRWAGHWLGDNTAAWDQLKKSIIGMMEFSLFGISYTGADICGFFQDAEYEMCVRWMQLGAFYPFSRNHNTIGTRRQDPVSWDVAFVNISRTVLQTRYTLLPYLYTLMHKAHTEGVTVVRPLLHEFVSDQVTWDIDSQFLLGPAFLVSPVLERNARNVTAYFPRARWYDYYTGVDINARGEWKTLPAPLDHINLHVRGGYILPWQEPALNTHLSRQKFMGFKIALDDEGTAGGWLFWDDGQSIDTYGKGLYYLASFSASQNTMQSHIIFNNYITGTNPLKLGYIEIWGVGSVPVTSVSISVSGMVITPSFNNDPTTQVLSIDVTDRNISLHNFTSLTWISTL

Structure (SMILES)	IC50
COC(=O)c1ccc(/C=N/NC(=O)c2ccc(-c3nc4ccccc4s3)cc2)cc1	Not Active
COc1ccc(/C=N/NC(=O)c2ccc(-c3nc4ccccc4s3)cc2)cc1OC	Not Active
COc1ccc(/C=N/NC(=O)c2ccc(-c3nc4ccccc4s3)cc2)cc1O	Not Active

Second part, the compound after the results:

IC50	Structure (SMILES)
Not Active	O=C(N/N=C/c1cccnc1)c1ccc(-c2nc3ccccc3s2)cc1
Not Active	O=C(N/N=C/c1ccncc1)c1ccc(-c2nc3ccccc3s2)cc1
